The melting point is the temperature of the solid-liquid transition.

The values below come from patent US7741485B2, “Benzenesulphonamide derivatives as herbicides or desiccant/defoliant compounds” (BASF Aktiengesellschaft, priority 2003, dated 2010).

Data set [1] concerns common lambsquarters. Nature of the data set: greenhouse herbicidal test, post-emergence treatment. In kind it is in vivo. An excerpt: (§1) The seeds of the test plants were sown separately for each species. For the post-emergence treatment, the test plants were first grown to a height of 3 to 15 cm, depending on the plant form, and only then treated with the active compounds, emulsified or suspended in water. The test plants were for this purpose either sown directly and grown in the same containers, or they were first grown separately as seedlings and transplanted into the test containers a few days prior to treatment. The application rate for the pre- and post-emergence treatment was from 62.5 to 3.1 g of a.s./ha. Depending on the species, the plants were kept at 10-25° C. or 20-35° C. The test period extended over 2 to 4 weeks. During this time, the plants were tended, and their response to the individual treatments was evaluated. Evaluation was carried out using a scale from 0 to 100. 100 means no emergence of the plants, or complete destruction of at least the above-ground parts, and 0 means no damage, or normal course of growth. The plants used in the greenhouse experiments were composed of the following species: [table]

Data set [2] relates to velvet leaf. The description is as above. Conditions: application rates of 15.63 g/ha. In kind it is in vivo.
Source text: as §1

The test system of a further data set is Bengal commelina. The description is as above. The note with it: application rates of 15.63 g/ha. The class given is in vivo.
Source text: as §1

The test system of data set [3] is common morning glory. The description is as above. The class given is in vivo.
Source text: as §1

The test system of data set [4] is pigweed. The description is as above. The class given is in vivo.
Source text: as §1

Another data set concerns wild buckwheat. The experiment in a line: greenhouse herbicidal test, pre-emergence treatment. Conditions: application rates of 12.5 and 6.2 g/ha. The class given is in vivo. The source says: (§2) The seeds of the test plants were sown separately for each species. For the pre-emergence treatment, the active compounds, emulsified or suspended in water, were applied directly after sowing by means of finely distributing nozzles. The containers were irrigated gently to promote germination and growth and subsequently covered with transparent plastic hoods until the plants had rooted. This cover caused uniform germination of the test plants, unless this was adversely affected by the active compounds. The application rate for the pre- and post-emergence treatment was from 62.5 to 3.1 g of a.s./ha. Depending on the species, the plants were kept at 10-25° C. or 20-35° C. The test period extended over 2 to 4 weeks. During this time, the plants were tended, and their response to the individual treatments was evaluated. Evaluation was carried out using a scale from 0 to 100. 100 means no emergence of the plants, or complete destruction of at least the above-ground parts, and 0 means no damage, or normal course of growth. The plants used in the greenhouse experiments were composed of the following species: [table]

For data set [5], the system named is common lambsquarters. The description is as above. The class given is in vivo. The note with it: for pre-emergence activity against common lambsquarters: application rates of 12.5 and 6.2 g/ha; for control of common lambsquarters, pre-emergence method: application rates of 6.2 and 3.1 g/ha.
Source text: as §2

Data set [6] deals with common morning glory. The data set is described as above. The note with it: for pre-emergence activity against common morning glory: application rates of 12.5 and 6.2 g/ha; for control of morning glory, pre-emergence method: application rates of 6.2 and 3.1 g/ha. In kind it is in vivo.
Source text: as §2

Data set [7] has as its system pigweed. Described as above. In kind it is in vivo. Conditions: for pre-emergence activity against pigweed: application rates of 12.5 and 6.2 g/ha; for control of pigweed, pre-emergence method: application rates of 6.2 and 3.1 g/ha.
Source text: as §2

For another data set, the system named is ladysthumb. Nature of the data set: greenhouse herbicidal test, post-emergence treatment. The class given is in vivo. The note with it: for post-emergence activity against ladysthumb: application rates of 15.6 and 7.8 g/ha; for post-emergence activity against ladiesthumb: application rates of 15.63 g/ha.
Source text: as §1

In data set [8] the test system is velvet leaf. The experiment in a line: greenhouse herbicidal test, pre-emergence treatment. In kind it is in vivo. The note with it: for control of velvet leaf, pre-emergence method: application rates of 6.2 and 3.1 g/ha.
Source text: as §2

Another data set deals with common nightshade. Described as above. The class given is in vivo. Conditions: application rates of 62.5 and 31.2 g/ha.
Source text: as §2

Another data set concerns cleavers harrif. Nature of the data set: greenhouse herbicidal test, post-emergence treatment. In kind it is in vivo. The note with it: application rates of 15.63 g/ha.
Source text: as §1

The mark [9] stands for this setting: application rates of 15.63 g/ha.
Setting [10] is: application rates of 15.6 and 7.8 g/ha.
The mark [11] stands for this setting: application rates of 62.5 and 31.2 g/ha.

`CNC(=O)NS(=O)(=O)c1cc(-n2c(=O)cc(C(F)(F)F)n(C)c2=O)c(F)cc1Cl` [Compound 2.17]: the “post-emergence activity against common lambsquarters” value in the data set with common lambsquarters [1] (setting [9]) is on record as “very good”. Also, in the data set with velvet leaf [2], the “post-emergence activity against velvet leaf” value is “very good”. Besides, the “post-emergence activity against Bengal commelina” value with Bengal commelina is recorded as “very good”.
As for `CC(C)N(C(=O)NS(=O)(=O)c1cc(-n2c(=O)cc(C(F)(F)F)n(C)c2=O)c(F)cc1Cl)C(C)C` [Compound 2.27], the “post-emergence activity against common morning glory” value in the data set with common morning glory [3] (setting [9]) is “very good”. For the same compound, the “post-emergence activity against pigweed” value in the data set on pigweed [4] (setting [9]) is given as “very good”.
With `C#CC(C)N(C)C(=O)NS(=O)(=O)c1cc(-n2c(=O)cc(C(F)(F)F)n(C)c2=O)c(F)cc1Cl` (stereo not drawn) [Compound 2.28], the “post-emergence activity against common lambsquarters” value in the data set with common lambsquarters [1] (setting [9]) is on record as “very good”. The “post-emergence activity against common morning glory” value in the data set on common morning glory [3] (setting [9]) is listed as “very good”. For the same compound, the “post-emergence activity against pigweed” value in the data set on pigweed [4] (setting [9]) is reported as “very good”.
For `Cn1c(C(F)(F)F)cc(=O)n(-c2cc(S(=O)(=O)NC(=O)Nc3ccccc3)c(Cl)cc2F)c1=O` [Compound 2.29], the “post-emergence activity against common lambsquarters” value in the data set with common lambsquarters [1] (setting [10]) is “very good”. Also, the “post-emergence activity against common morning glory” value in the data set with common morning glory [3] (setting [10]) was “very good”. Besides, the “post-emergence activity against pigweed” value in the data set with pigweed [4] (setting [10]) was “very good”.
Turning to `COC(=O)NS(=O)(=O)c1cc(-n2c(=O)cc(C(F)(F)F)n(C)c2=O)ccc1Cl` [Compound 3.1], the “pre-emergence activity against wild buckwheat” value in the data set with wild buckwheat is reported as “very good”. Further, the “pre-emergence activity against common lambsquarters” value with common lambsquarters [5] is “very good”. Further, the “pre-emergence activity against common morning glory” value with common morning glory [6] is recorded as “very good”. The “pre-emergence activity against pigweed” value in the data set on pigweed [7] was “very good”.
For `COC(=O)NS(=O)(=O)c1cc(-n2c(=O)cc(C(F)(F)F)n(C)c2=O)c(F)cc1Cl` [Compound 3.18], in the data set with wild buckwheat, the “pre-emergence activity against wild buckwheat” value is given as “very good”. In addition, the “pre-emergence activity against common lambsquarters” value with common lambsquarters [5] is given as “very good”. The “pre-emergence activity against common morning glory” value in the data set with common morning glory [6] was “very good”. Besides, the “pre-emergence activity against pigweed” value in the data set with pigweed [7] is “very good”.
For the compound `CCOC(=O)NS(=O)(=O)c1cc(-n2c(=O)cc(C(F)(F)F)n(C)c2=O)c(F)cc1Cl` [Compound 3.19], the “post-emergence activity against ladysthumb” value with ladysthumb is listed as “very good”. The “post-emergence activity against common lambsquarters” value with common lambsquarters [1] (setting [10]) was “very good”. For the same compound, in the data set on common morning glory [3] (setting [10]), the “post-emergence activity against common morning glory” value is listed as “very good”. In addition, the “post-emergence activity against pigweed” value with pigweed [4] (setting [10]) is “very good”.
`CCCOC(=O)NS(=O)(=O)c1cc(-n2c(=O)cc(C(F)(F)F)n(C)c2=O)c(F)cc1Cl` [Compound 3.20]: in the data set on ladysthumb, the “post-emergence activity against ladysthumb” value is reported as “very good”. Besides, the “post-emergence activity against common lambsquarters” value in the data set on common lambsquarters [1] (setting [10]) is “very good”. In addition, the “post-emergence activity against common morning glory” value in the data set on common morning glory [3] (setting [10]) is “very good”. Further, in the data set on pigweed [4] (setting [10]), the “post-emergence activity against pigweed” value is given as “very good”.
Consider `CCCCOC(=O)NS(=O)(=O)c1cc(-n2c(=O)cc(C(F)(F)F)n(C)c2=O)c(F)cc1Cl` [Compound 3.22], for which the “post-emergence activity against ladysthumb” value in the data set on ladysthumb is recorded as “very good”. For the same compound, the “post-emergence activity against common lambsquarters” value in the data set with common lambsquarters [1] (setting [10]) is given as “very good”. Besides, the “post-emergence activity against common morning glory” value in the data set on common morning glory [3] (setting [10]) is “very good”. For the same compound, the “post-emergence activity against pigweed” value in the data set on pigweed [4] (setting [10]) is reported as “very good”.
As to `CC(C)COC(=O)NS(=O)(=O)c1cc(-n2c(=O)cc(C(F)(F)F)n(C)c2=O)c(F)cc1Cl` [Compound 3.24], in the data set on common lambsquarters [5], the “control of common lambsquarters, pre-emergence method” value was “very good”. In addition, in the data set with velvet leaf [8], the “control of velvet leaf, pre-emergence method” value was “very good”. In addition, in the data set on common morning glory [6], the “control of morning glory, pre-emergence method” value is “very good”. For the same compound, the “control of pigweed, pre-emergence method” value in the data set on pigweed [7] is “very good”.
On to `CCCCCOC(=O)NS(=O)(=O)c1cc(-n2c(=O)cc(C(F)(F)F)n(C)c2=O)c(F)cc1Cl` [Compound 3.26], for which the “post-emergence activity against common lambsquarters” value in the data set with common lambsquarters [1] (setting [10]) is on record as “very good”. For the same compound, the “post-emergence activity against common morning glory” value in the data set on common morning glory [3] (setting [10]) is “very good”. For the same compound, the “post-emergence activity against pigweed” value in the data set on pigweed [4] (setting [10]) is “very good”.
In the case of `Cn1c(C(F)(F)F)cc(=O)n(-c2cc(S(=O)(=O)NC(=O)OC3CCCC3)c(Cl)cc2F)c1=O` [Compound 3.27], the “post-emergence activity against ladysthumb” value with ladysthumb is reported as “very good”. For the same compound, the “post-emergence activity against common lambsquarters” value with common lambsquarters [1] (setting [10]) is given as “very good”. Also, in the data set on common morning glory [3] (setting [10]), the “post-emergence activity against common morning glory” value is “very good”. Further, the “post-emergence activity against pigweed” value in the data set with pigweed [4] (setting [10]) is “very good”.
On to `Cn1c(C(F)(F)F)cc(=O)n(-c2cc(S(=O)(=O)NC(=O)OCc3ccccc3)c(Cl)cc2F)c1=O` [Compound 3.32, Benzyl{2-chloro-4-fluoro-5-[3,6-dihydro-3-methyl-2,6-dioxo-4-trifluoromethyl-(2H)-pyrimidin-1-yl]phenyl}sulfonylcarbamate], for which the “effectiveness against common nightshade, pre-emergence method” value with common nightshade is on record as “very good”. In addition, the “effectiveness against common lambsquarters, pre-emergence method” value in the data set with common lambsquarters [5] (setting [11]) was “very good”. Besides, the “effectiveness against velvet leaf, pre-emergence method” value with velvet leaf [8] (setting [11]) is reported as “very good”. For the same compound, the “effectiveness against pigweed, pre-emergence method” value in the data set on pigweed [7] (setting [11]) was “very good”.
In the case of `COC(=O)COC(=O)NS(=O)(=O)c1cc(-n2c(=O)cc(C(F)(F)F)n(C)c2=O)c(F)cc1Cl` [Compound 3.41], the “post-emergence activity against ladiesthumb” value with ladysthumb is recorded as “very good”. Also, in the data set on cleavers harrif, the “post-emergence activity against cleavers harrif” value is listed as “very good”. Besides, the “post-emergence activity against pigweed” value in the data set on pigweed [4] (setting [9]) is given as “very good”.
With `COCC(C)(C)OC(=O)NS(=O)(=O)c1cc(-n2c(=O)cc(C(F)(F)F)n(C)c2=O)c(F)cc1Cl` [Compound 3.42], the “post-emergence activity against ladiesthumb” value with ladysthumb was “very good”. Moreover, the “post-emergence activity against velvet leaf” value in the data set on velvet leaf [2] is given as “very good”. Further, the “post-emergence activity against common morning glory” value in the data set on common morning glory [3] (setting [9]) is on record as “very good”.
With `CC(C)C(=O)NS(=O)(=O)c1cc(-n2c(=O)cc(C(F)(F)F)n(C)c2=O)ccc1Cl` [Compound 4.5, N-isobutynyl-[2-chloro-5-(3,6-dihydro-3-methyl-2,6-dioxo-4-trifluoromethyl-1-(2H)-pyrimidinyl)]benzenesulfonamide], the melting point lay in the range of 114 to 116 °C.
`CCC(=O)NS(=O)(=O)c1cc(-n2c(=O)cc(C(F)(F)F)n(C)c2=O)c(F)cc1Cl` [Compound 4.14]: in the data set with ladysthumb, the “post-emergence activity against ladiesthumb” value is reported as “very good”. Besides, in the data set on cleavers harrif, the “post-emergence activity against cleavers harrif” value was “very good”. Also, in the data set with pigweed [4] (setting [9]), the “post-emergence activity against pigweed” value was “very good”.
Consider `CC(C)C(=O)NS(=O)(=O)c1cc(-n2c(=O)cc(C(F)(F)F)n(C)c2=O)c(F)cc1Cl` [Compound 4.16], for which the “control of common lambsquarters, pre-emergence method” value with common lambsquarters [5] was “very good”. The “control of velvet leaf, pre-emergence method” value with velvet leaf [8] is “very good”. In the data set with common morning glory [6], the “control of morning glory, pre-emergence method” value is on record as “very good”. Moreover, in the data set on pigweed [7], the “control of pigweed, pre-emergence method” value is recorded as “very good”.
